Experimental data from paper PMC3238229 (Genetics, Selection, Evolution : GSE, 2003).
Where two headings read alike, the source gives them in different places. Ends that are not written are not given here.

Assays:
BoLA-DRB3*2703 = format: binding, bovine
[1] = system: peptide-specific T-lymphocytes from BMC of a cow homozygous for BoLA-DRB3*2703; format: cell-based, Holstein cow
[2] = system: CD4+ and CD8+ peptide-specific T-lymphocytes from BMC of a cow homozygous for BoLA-DRB3*2703; format: cell-based, Holstein cow
[3] = system: IFN-γ production by peptide-specific T-lymphocytes; format: cell-based, Holstein cow
[4] = target: BoLA-DRB3*2703 class II molecule (bovine); experiment: binding of labelled peptide to pu
[5] = target: BoLA-DRB3*2703 class II molecule (bovine)
[6] = target: BoLA-DRB3*2703 class II molecule (bovine); experiment: competitive peptide binding to pu

Molecule	Binding affinity (designated high or low) (BoLA-DRB3*2703)	DNA synthesis of T-cells compared to naive cell cultures (in words) [1]	IC50 [6]	further results
QAVHAAHAEINE [OVA336]	Low	not significantly different	–	cell divisions of CD8+lo T-lymphocytes compared to the naive lymphocyte culture [2]: more cell divisions; IFN-γ in culture supernatant compared to the naive cell culture [3]: less; IFN-γ in culture supernatant compared to the naive cell culture ([3]; 18 h): less
SSAESLKISQAV [OVA327]	Low	significantly lower	–	–
KISQAVHAAHA [OVA332]	Low	not significantly different	–	IC50 (BoLA-DRB3*2703; read-out: concentration required to inhibit BoLA class II-self-peptide binding by 50% (IC50)): > 640 µM
DVNEFRAVTPLGRPDAE (not fully specified) [Biotinylated self-peptide DQ]	–	–	–	other [4]: 58.2 pixels
SIINNYYMQQYQNSM (not fully specified) [FMD-VP4[20-34]]	–	–	–	IC50 [5]: 46.5 µM
QAVHAAHAEINE [OVA336[325-336]]	–	–	> 320 µM	–
ISQAVHAAHAEIN [OVA335[323-335]]	–	–	26.9 µM	–
ISQAVHAAHAEINEAGR [OVA339[323-339]]	–	–	72.2 µM	–
DVNEFRAVTPLGRPDAE [Self-peptide DQ (unlabelled competitor)]	–	–	16.1 µM	–
SSAESLKISQAV [OVA327[316-327]]	–	–	> 320 µM	–
